Reference: patent EP0103895A2, “Novel hydroxylamine derivatives, production and use thereof” (MEIJI SEIKA KABUSHIKI KAISHA, priority 1982, dated 1984)
Where “and” joins values, the source holds several entries; their conditions need not be identical. Equal values may be shown once. Read-outs that look alike come from different tables or passages of the source.

Experiments:
[1] = tested on: fowl roundworm (As. galli); assay: Anthelmintic test in chickens artificially infected with fowl roundworm, compound added to feed, E.P.G. and worm count up to 21st day (Test Examples A2, B2, C2, D2); type: in vivo, Ascaridia galli
[2] = tested on: canine whipworm (Trichuris vulpis); assay: Anthelmintic test in naturally infected dogs with mixed infections, E.P.G. on 7th day: canine whipworm (Test Examples A3, B3, C3, D3); type: in vivo; conditions: for anthelmintic effect: dogs with mixed infections (Trichuris vulpis, Ancylostoma caninum, Toxocara canis; statement covers all three); for Change of E.P.G. Before administration / Change of E.P.G. 7th day: Trichuris vulpis
Procedure: (§1) Three dogs with mixed infections by canine whipworm (Trichuris vulpis), canine hookworm (Ancylostoma caninum) and canine roundworm (Toxocara canis) (naturally infected dogs) were employed in a group of two and a group of one.
(§2) The compound provided for the test was Compound No.Al, and 20 mg/Kg thereof was placed in a gelatin capsule per 1 Kg of body weight, and administered orally to the two dogs. As control, only a gelatin capsule was administered orally to the one dog.
(§3) Before administration and on the 7th day after administration, fecal matter testing was conducted to calculate the E.P.G., and the anthelmintic effect was judged by the changing of the E.P.G. to negative.
(§4) As control, only gelatin capsules were administered orally to the one dog.
(§5) The same method as in Test Example A3, but the compound provided for the test was Compound No. Cl. 30 mg/Kg of this compound was placed in a gelatin capsule per 1 Kg of body weight and administered orally to the two dogs. As control, only gelatin capsules were administered orally to the one dog.

[3] = tested on: canine hookworm (Ancylostoma caninum); assay: Anthelmintic test in naturally infected dogs with mixed infections, E.P.G. on 7th day: canine hookworm (Test Examples A3, B3, C3, D3); type: in vivo
Procedure: as §1, §2, §3, §4, §5

[4] = tested on: canine roundworm (Toxocara canis); assay: Anthelmintic test in naturally infected dogs with mixed infections, E.P.G. on 7th day: canine roundworm (Test Examples A3, B3, C3, D3); type: in vivo
Procedure: as §1, §2, §3, §4, §5

[5] = tested on: canine strongyloides (Strongyloides stercoralis); assay: Anthelmintic test against canine strongyloides in naturally infected dogs, E.P.G. on 7th day (Test Examples A4, B4, C4, D4); type: in vivo
Procedure: Three dogs infected with canine strongyloides (naturally infected dogs) were employed by grouping them into a group of two and a group of one.
As control, only a gelatin capsule was administered orally to the one dog.
as §3, §4, §4

[6] = tested on: Trichostrongylidae (Trichostrongylus colubriformis); assay: Anthelmintic test against sheep Trichostrongylidae in naturally infected sheep, E.P.G. on 7th day (Test Examples A7, B7, C7, D7); type: in vivo; conditions: for anthelmintic effect: one administration of 15 mg/Kg
Procedure: Two sheep infected with Trichostrongylidae (naturally infected sheep) were employed.
The compound provided for the test was Compound No. Al, 15 mg of which was placed in a gelatin capsule per 1 Kg of body weight and administered orally to one of the sheep. As a control, only gelatin capsules were administered orally to the other sheep.
as §3
As control, only gelatin capsules were administered orally to the other sheep.
As control, only gelatin capsule was administered orally to the other sheep.

[7] = tested on: swine roundworm (Ascaris suum); assay: Test of anthelmintic effect in naturally infected pigs, E.P.G. on 7th day: swine roundworm (Test Examples A9, B9, C9, D9); type: in vivo
Procedure: (§6) Six pigs infected with swine roundworm and swine whipworm (naturally infected pigs) were employed in groups each of two pigs.
(§7) As a control, only gelatin capsules were administered orally to the two pigs.
(§8) Before administration and on the 7th day after. administration, fecal matter testing was conducted to calculate the E.P.G., and the anthelmintic effect was judged by the changing of the E.P.G. to negative'.
(§9) 50 mg of each compound was placed in a gelatin capsule per 1 Kg of body weight and administered orally to each of the two pigs. As control, only gelatin capsules were administered orally to two pigs.
(§10) 30 mg of each compound was placed in a gelatin capsule per 1 Kg of body weight and administered orally to each of the two pigs. As control, only gelatin capsules were administered orally to two pigs.

[8] = tested on: swine whipworm (Trichuris suis); assay: Test of anthelmintic effect in naturally infected pigs, E.P.G. on 7th day: swine whipworm (Test Examples A9, B9, C9, D9); type: in vivo; conditions: pigs, 20 mg/Kg orally once, one value per pig
Procedure: as §6, §7, §8, §9, §10

[9] = tested on: canine filaria; Dirofilaria immitis; assay: Test of anthelmintic effect against canine filaria in naturally infected dogs, subcutaneous injection, microfilaria in blood and adult filaria at autopsy (Test Examples A10, B10, C10, D10); type: in vivo; conditions: for Effect on adult filaria: Number of worms killed/ Total parasite: 30 mg/kg
[10] = tested on: Liver fluke; Fasciola hepatica (F. hepatica); assay: Test of anthelmintic effect against rat infected experimentally with liver fluke (Test Examples A11, B11, C11, D11); type: in vivo; design: key to Presence or absence of fluke egg in fecal matter On 21st day after the last administration: +: indicates detection of fluke egg; -: indicates no detection
[11] = tested on: fowl roundworm (Ascaridia galli); assay: Anthelmintic test in chickens artificially infected with fowl roundworm, single oral dose in gelatin capsule, worm bodies counted within 48 hours (Test Examples A1, B1, C1, D1); type: in vivo; conditions: Ascaridia galli, po, 48 h, read-out: Anthelmintic effect after 48 hours
Outline: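 Anthelmintic percentage derived from counts of worms passed within 48 h plus worms left in the intestine after killing at 48 h. Infection confirmed by fecal examination in three-bird groups; compound given orally once in gelatin capsules at 10/20 (A1, B1), 30/50 (C1) or 15/30 (D1) mg/kg.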

[12] = tested on: Trichostrongylidae (Trichostrongylus colubriformis); assay: Anthelmintic test against sheep Trichostrongylidae in naturally infected sheep, E.P.G. on 7th day (Test Examples A7, B7, C7, D7); type: in vivo
[13] = tested on: stomach worm (Haemonchus controtus); assay: Anthelmintic test against cow stomach worm in naturally infected cows, E.P.G. on 7th day (Test Examples A6, B6, C6, D6); type: in vivo
Procedure: Three cows infected with stomach worm (naturally infected cows) were employed by grouping them into a group of two and a group of one.
(§11) As control, only gelatin capsules were administered orally to the one cow.
as §3, §11, §11

[14] = dogs, 20 mg/Kg orally once, baseline, one value per dog, 20 mg/kg
[15] = dogs, 20 mg/Kg orally once, one value per dog
[16] = dogs, 20 mg/Kg x 3 subcutaneously, autopsy on 10th day after the last administration, one value per dog, 20 mg/kg
[17] = Dirofilaria immitis, sc, 240 h, dog, 30 mg/Kg x 3, subcutaneous injection, read-out: Effect on adult filaria: Percent of worms killed
[18] = Dirofilaria immitis, sc, 240 h, dogs, administration of 30 mg/Kg repeated three times, given as about 50% or more, read-out: anthelmintic effect against adult filaria
[19] = dog, 30 mg/Kg x 3, subcutaneous injection, suspension in 1% Tween 80
[20] = dog, 30 mg/Kg x 3, subcutaneous injection
[21] = dogs, administration of 30 mg/Kg repeated three times
[22] = chicken, 30 mg/Kg oral in gelatin capsule, chickens No.1-3
[23] = chicken, 50 mg/Kg oral in gelatin capsule, chickens No.1-3
[24] = Ascaridia galli, feed or water, 504 h, chicken, 25 ppm in feed, read-out: Anthelmintic effect
[25] = Ascaridia galli, feed or water, 504 h, chicken, 50 ppm in feed, read-out: Anthelmintic effect
[26] = dog, 30 mg/Kg oral in gelatin capsule, one administration
[27] = dog, before 30 mg/Kg oral (baseline)

C#CCN(OC)C(C)=O [Compound A1, N-propargyl-N-acetyl-O-methylhydroxylamine]
inhibition in vivo at 10 ppm ([1]; Ascaridia galli, po, 504 h, chickens, 10 ppm added to feed, worm count on 21st day, one value per chicken, read-out: Anthelmintic effect): 80 to 90% | inhibition in vivo at 50 ppm ([1]; Ascaridia galli, po, 504 h, chickens, 50 ppm added to feed, worm count on 21st day, one value per chicken, read-out: Anthelmintic effect): 100% | anthelmintic effect ([2]; one administration of 20 mg/Kg): marked anthelmintic effect | Change of E.P.G. Before administration [2, 14]: 3,200 E.P.G. and 2,700 E.P.G. | Change of E.P.G. 7th day [2, 15]: 0 E.P.G. | Change of E.P.G. Before administration [3, 14]: 4,500 E.P.G. and 7,800 E.P.G. | Change of E.P.G. 7th day [3, 15]: 0 E.P.G. | Change of E.P.G. Before administration [4, 14]: 5,100 E.P.G. and 2,300 E.P.G. | Change of E.P.G. 7th day [4, 15]: 0 E.P.G. | anthelmintic effect ([5]; dogs, one administration of 10 mg/Kg): marked anthelmintic effect | anthelmintic effect ([5]; dogs, one administration of 20 mg/Kg): marked anthelmintic effect | Change of E.P.G. 7th day ([6]; 15 mg/Kg orally once): 0 E.P.G. | Change of E.P.G. Before administration ([6]; 15 mg/Kg orally once, baseline): 1,600 E.P.G. | anthelmintic effect [6]: marked anthelmintic effect | anthelmintic effect ([7]; pigs infected with swine roundworm and swine whipworm (statement covers both), one administration of 20 mg/Kg): marked anthelmintic effect | Change of E.P.G. 7th day ([7]; pigs, 20 mg/Kg orally once, Ascaris suum, one value per pig): 0 E.P.G. | Change of E.P.G. Before administration ([8]; baseline, 20 mg/kg): 1,300 E.P.G. and 2,100 E.P.G. | Change of E.P.G. 7th day [8]: 0 E.P.G. | inhibition in vivo at 20 mg/kg ([9]; Dirofilaria immitis, sc, 240 h, dogs, administration of 20 mg/Kg repeated three times, given as about 50% or more, read-out: anthelmintic effect against adult filaria): ≥ 50% | Effect on adult filaria: Number of worms killed/Total parasites [9, 16]: 7/12 and 5/ 7 | Effect on adult filaria: Percent of worms killed [9, 16]: 58% and 71% | Number of microfilaria/20 µl On 10th day after the last administration ([9]; dogs, 20 mg/Kg x 3 subcutaneously, earlobe blood, one value per dog): 0 /20 µl | anthelmintic effect against microfilaria (mf) ([9]; dogs, administration of 20 mg/Kg repeated three times): marked anthelmintic effect | Condition of fluke body ([10]; rats, 50 mg/Kg x 5 orally, autopsy, liver, "Denatured" = fluke body is alive but a part of fluke body has changed, one value per rat): dead | Presence or absence of fluke egg in fecal matter On 21st day after the last administration ([10]; rats, 50 mg/Kg x 5 orally, one value per rat): -

C=CCN(OCC)C(C)=O [Compound B8, N-allyl-N-acetyl-O-ethylhydroxylamine]
inhibition in vivo at 30 mg/kg ([11]; chickens, 30 mg/Kg orally in gelatin capsule, one value per chicken (No.1-3)): 100% | inhibition in vivo at 50 mg/kg ([11]; chickens, 50 mg/Kg orally in gelatin capsule, one value per chicken (No.1-3)): 100% | Change of E.P.G. Before administration [5, 14]: 5,300 E.P.G. and 2,600 E.P.G. | Change of E.P.G. 7th day [5, 15]: 0 E.P.G. | inhibition in vivo at 30 mg/kg [9, 17]: 58% | inhibition in vivo at 30 mg/kg [9, 18]: ≥ 50% | Number of microfilaria/20 µl on 10th day after the last administration [9, 19]: 0 /20 µl | Effect on adult filaria: Number of worms killed/ Total parasite [9, 20]: 7/12 and 13/21 | anthelmintic effect against microfilaria (mf) [9, 21]: marked anthelmintic effect | Condition of fluke body ([10]; rat, 50 mg/Kg x 5): dead | Presence or absence of fluke egg in fecal matter On 21st day after the last administration ([10]; rat, 50 mg/Kg x 5): - | anthelmintic effect ([10]; rats, five administrations in a dose of 50 mg/Kg each): marked antihelmintic effect | Change of E.P.G. 7th day ([12]; 20 mg/Kg orally once): 0 E.P.G. | Change of E.P.G. Before administration ([12]; 20 mg/Kg orally once, baseline): 3,400 E.P.G. | anthelmintic effect ([12]; one administration of 20 mg/Kg): marked anthelmintic effect

C=CCON(CC=C)C(C)=O [Compound C1, N,O-diallyl-N-acetylhydroxyl- amine]
inhibition in vivo at 30 mg/kg [11, 22]: 100% | inhibition in vivo at 50 mg/kg [11, 23]: 100% | inhibition in vivo at 25 ppm [1, 24]: 100% | inhibition in vivo at 50 ppm [1, 25]: 100% | Change of E.P.G. 21st day ([1]; chicken, 25 ppm in feed): 0 | Change of E.P.G. 21st day ([1]; chicken, 50 ppm in feed): 0 | Change of E.P.G. 7th day [2, 26]: 0 | Change of E.P.G. Before administration [2, 27]: 2,300 and 4,200 | anthelmintic effect ([2]; one administration of 30 mg/Kg): marked anthelmintic effect | Change of E.P.G. 7th day [3, 26]: 0 | Change of E.P.G. Before administration [3, 27]: 4,500 and 6,600 | Change of E.P.G. 7th day [4, 26]: 0 | Change of E.P.G. Before administration [4, 27]: 3,300 and 3,100 | Change of E.P.G. 7th day ([13]; cow, Haemonchus controtus, 20 mg/Kg oral in gelatin capsule, one administration): 0 | Change of E.P.G. Before administration ([13]; cow, Haemonchus controtus, before 20 mg/Kg oral (baseline)): 2,200 and 1,400 | anthelmintic effect ([13]; cows, one administration of 20 mg/Kg): marked anthelmintic effect | inhibition in vivo at 30 mg/kg [9, 17]: 86% | inhibition in vivo at 30 mg/kg [9, 18]: ≥ 50% | Number of microfilaria/20 µl On 10th day after the last administration [9, 19]: 0 /20 µl | Effect on adult filaria: Number of worms killed/ Total parasite [9, 20]: 13/15 and 16/21 | anthelmintic effect against microfilaria (mf) [9, 21]: marked anthelmintic effect

CC=CCON(CC=CC)C(C)=O [Compound C10]
inhibition in vivo at 30 mg/kg [11, 22]: 80 to 90% | inhibition in vivo at 50 mg/kg [11, 23]: 100% | inhibition in vivo at 25 ppm [1, 24]: 80 to 90% | inhibition in vivo at 50 ppm [1, 25]: 100% | Change of E.P.G. 7th day ([5]; dog, Strongyloides stercoralis, 30 mg/Kg oral in gelatin capsule, one administration): 0 | Change of E.P.G. Before administration ([5]; dog, Strongyloides stercoralis, before 30 mg/Kg oral (baseline)): 2,300 and 3,100 | anthelmintic effect ([5]; dogs, one administration of 30 mg/Kg): marked anthelmintic effect | anthelmintic effect [6]: marked anthelmintic effect | Change of E.P.G. 7th day ([12]; Trichostrongylus colubriformis, 20 mg/Kg oral in gelatin capsule, one administration): 0 | Change of E.P.G. Before administration ([12]; Trichostrongylus colubriformis, before 20 mg/Kg oral (baseline)): 1,800
